Some test systems named below: HOP-18; LXFL 529; DMS-114; SNB-78; DMS-273; KM-20L2; RXF 631; DLD-1; XF498.
What all share (test): DTP human tumour cell line panel, 48 h

Molecules are shown by their SMILES.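 Tested at 5 concentrations; 48 h exposure; 96-well plates; endpoints linearly interpolated, else capped at highest concentration. The concentration for 50% growth inhibition is given as GI50.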 Activity calls are given as the source filed them. No stated cut-off is given here; in the data, active = GI50 up to about 1.1 µM and inactive = higher.

The source of these data is ChEMBL document CHEMBL1201862, “PubChem BioAssay data set” (2004).

As a reminder, the GI50 is the concentration that inhibits growth by half.

Turning to `CCCCCCc1cc(C(=O)Nc2cccc(C(F)(F)F)c2)nc(N)n1`, the GI50 with HOP-18, with LXFL 529, in the assay on DMS-114, in the assay on SNB-78, with DMS-273 and in the assay on KM-20L2 was > 100 µM (inactive) in each case. The GI50 in the assay on RXF 631 and in the assay on DLD-1 was > 100 µM (inactive) in each case.

As for `O=C(Nc1ccccc1-c1nn(CO)c(=S)n(CO)c1=O)C(F)(F)F`, the GI50 with LXFL 529 was > 100 µM (inactive); in the assay on DMS-114, > 100 µM (inactive); with SNB-78, > 100 µM (inactive); in the assay with DMS-273 it was > 100 µM (inactive); with XF498, > 100 µM (inactive); in the assay with DLD-1 it was 95.7 µM (inactive).

Take `COc1cc(CC(C(=O)O)C(=O)O)c(OC)cc1CC(C(=O)O)C(=O)O`: the GI50 in the assay on LXFL 529, with DMS-114, in the assay with SNB-78, with DMS-273, in the assay on KM-20L2 and in the assay with XF498 was > 100 µM (inactive) throughout. In the assay on DLD-1, the GI50 is > 100 µM (inactive).

For the compound `COc1c2c(cc3nc4ccccc4nc13)CCC(C(C)(C)O)C2` (stereo unspecified), the GI50 in the assay with HOP-18 is 86.5 µM (inactive); in the assay on LXFL 529, > 100 µM (inactive); with SNB-78 it was > 100 µM (inactive); in the assay on DMS-273, 63.4 µM (inactive); in the assay on KM-20L2 it was > 100 µM (inactive); with XF498, > 100 µM (inactive). In the assay on DLD-1, the GI50 was > 100 µM (inactive).

`Cc1nc2c(ccc3ncccc32)[nH]1`: the GI50 in the assay with HOP-18, in the assay with LXFL 529, with DMS-114, with DMS-273, with KM-20L2 and in the assay on DLD-1 was > 100 µM (inactive) in each case.

Turning to `O=C1OC(c2ccccc2)=N/C1=C/C=C/c1ccco1`, the GI50 with LXFL 529, in the assay on DMS-114, in the assay on SNB-78, in the assay with KM-20L2, in the assay on RXF 631 and in the assay on XF498 was > 100 µM (inactive) each time. In the assay on DLD-1, the GI50 is > 100 µM (inactive).

Consider `COc1ccc(/C=C2/CCCC/C2=N/O)cc1`, for which the GI50 with HOP-18 was > 100 µM (inactive); in the assay with LXFL 529 it was 66.8 µM (inactive); with DMS-114, 42.6 µM (inactive); in the assay with SNB-78, 94.2 µM (inactive); in the assay on DMS-273 it was 42.7 µM (inactive); with KM-20L2, > 100 µM (inactive). Further, the results for the GI50 in the assay on RXF 631 and with DLD-1 were > 100 µM (inactive) and 67.5 µM (inactive), respectively.

Take `Cc1nn(C)cc1P(=S)(c1ccccc1)c1ccccc1`: the GI50 in the assay on HOP-18 was > 100 µM (inactive); with LXFL 529, 51.3 µM (inactive); in the assay with DMS-114, 30.9 µM (inactive); in the assay with SNB-78 it was 51.2 µM (inactive); in the assay with DMS-273 it was 31.6 µM (inactive); in the assay with KM-20L2 it was > 100 µM (inactive). In addition, the GI50 was > 100 µM (inactive) in the assay on XF498 and 51.4 µM (inactive) in the assay with DLD-1.

On to `CC(C)C(Sc1nc(-c2ccccc2)c(-c2ccccc2)[nH]1)C(=O)N/N=C/c1ccc([N+](=O)[O-])cc1` (stereo unspecified), for which the GI50 is 9.98 µM (inactive) in the assay on LXFL 529; 25.9 µM (inactive) in the assay on DMS-114; 24.8 µM (inactive) with SNB-78; 12 µM (inactive) with DMS-273; 15.1 µM (inactive) with KM-20L2; 16.2 µM (inactive) in the assay with XF498. Further, the GI50 in the assay on DLD-1 is 30.8 µM (inactive).

For `CCOC(=O)C(=O)Nc1ccc(Cl)c(C(F)(F)F)c1`, the GI50 with HOP-18, in the assay on LXFL 529, in the assay on DMS-114, with SNB-78, in the assay on DMS-273 and in the assay on KM-20L2 was > 100 µM (inactive) throughout. The GI50 in the assay with RXF 631 and with DLD-1 was > 100 µM (inactive) each time.

As for `O=C1C(O)=C(CN(CCCl)CCCl)C(=O)c2ccccc21`, the GI50 with LXFL 529 was 48.3 µM (inactive); in the assay on SNB-78 it was 70.8 µM (inactive); with KM-20L2 it was 28.7 µM (inactive); in the assay on RXF 631 it was 87.9 µM (inactive); in the assay with XF498, > 100 µM (inactive); in the assay on DLD-1, 44.3 µM (inactive).

Turning to `CCCCN(C)CC(C(C)=O)C(c1ccccc1)c1c(O)c2ccccc2oc1=O` (stereo unspecified), the GI50 in the assay with HOP-18, with LXFL 529, in the assay with DMS-114, in the assay with SNB-78, in the assay on DMS-273 and with KM-20L2 was > 100 µM (inactive) throughout. For the same compound, the GI50 in the assay on XF498 and in the assay on DLD-1 was > 100 µM (inactive) throughout.

`O=C1c2c(nc3ccccc3c2-c2ccccc2)CN1Nc1ccccc1`: the GI50 in the assay on LXFL 529, with DMS-114, in the assay on KM-20L2, in the assay on XF498 and in the assay with DLD-1 was > 100 µM (inactive) in each case.

For `COc1ccc2nc(NC(=O)C(=O)NNC(=O)c3ccncc3)sc2c1`, the GI50 in the assay with HOP-18, with LXFL 529, with DMS-114, with SNB-78, in the assay on KM-20L2 and with XF498 was > 100 µM (inactive) each time. In addition, the GI50 in the assay on DLD-1 is > 100 µM (inactive).

Regarding `c1ccc2c(c1)C1CCCCCC21N1CCOCC1` (stereo unspecified), the GI50 is 50 µM (inactive) in the assay with LXFL 529; 38.8 µM (inactive) in the assay with DMS-114; > 100 µM (inactive) in the assay with SNB-78; 67.1 µM (inactive) in the assay on DMS-273; > 100 µM (inactive) in the assay on KM-20L2; 84.5 µM (inactive) in the assay on DLD-1.

With `COc1c(Cl)c2c(c(OC)c1OC)-c1ccc(OC)c(=O)c(Cl)c1C(NC(C)=O)CC2` (stereo unspecified), the GI50 is 0.243 µM (active) in the assay on LXFL 529; 0.224 µM (active) in the assay on DMS-114; 0.36 µM (active) with SNB-78; 0.116 µM (active) with DMS-273; 0.12 µM (active) in the assay with KM-20L2; 0.473 µM (active) in the assay with RXF 631. Also, the GI50 in the assay on XF498 is 0.34 µM (active); in the assay with DLD-1, 0.345 µM (active).

In the case of `CC1CC2(CC[C@@H]1O)OCCO2` (stereo partly specified), the GI50 with LXFL 529, in the assay with SNB-78, in the assay with DMS-273, in the assay on RXF 631, in the assay on XF498 and with DLD-1 was > 100 µM (inactive) each time.

With `Cn1c(=O)nc2n(-c3cc(C(F)(F)F)cc(C(F)(F)F)c3)c3ccccc3nc-2c1=O`, the GI50 in the assay with DMS-114 is 26.3 µM (inactive); in the assay with SNB-78, > 100 µM (inactive); with DMS-273, 45.7 µM (inactive); in the assay on KM-20L2, > 100 µM (inactive); in the assay with XF498 it was > 100 µM (inactive).

In the case of `O=C1C2C3C=CC(C2C(=O)N1CN1CCOCC1)C1C2C(=O)N(CN4CCOCC4)C(=O)C2C31` (stereo unspecified), the GI50 in the assay with HOP-18 was 22.1 µM (inactive); with LXFL 529 it was 19.6 µM (inactive); in the assay on DMS-114, 16.2 µM (inactive); in the assay on SNB-78, 32.9 µM (inactive); with DMS-273, 18.2 µM (inactive); in the assay with KM-20L2 it was 27.4 µM (inactive). Besides, the figures for the GI50 in the assay with RXF 631 and with DLD-1 were 11.5 µM (inactive) and 40.4 µM (inactive), respectively.
